Laboratory results as given in ChEMBL document CHEMBL4229331, “Synthesis and biological evaluation of 173-dicarboxylethyl-pyropheophorbide-a amide derivatives for photodynamic therapy” (Bioorg Med Chem Lett, 2018).
Calls of active or inactive are those of the source. The rule behind the calls is not given here.

Key:
[1] = test system: ECa-109 cell line; test: Decrease in tumor volume in human ECA109 cells xenografted in BALB/c nude mouse at 3 mg/kg, iv measured at 21 days post treatment in absence of laser irradiation; type: ADME, organism-based; details: in vivo, 504 h
[2] = Drug uptake in cytoplasm of human ECA109 cells at 5 uM incubated for 4 hrs in dark condition by Hoechst 33342 staining-based confocal fluorescence microscopy; type: ADME, subcellular; details: eca-109, 4 h
[3] = test system: ECa-109 cell line; test: Induction of apoptosis in human ECA109 cells assessed as early apoptotic cells at 1 uM preincubated for 24 hrs followed by laser irradiation at 16 J/cm'2 and measured after 24 hrs by annexin V/propidium iodide staining-based flow cytometric method (reference value: 2.45%); type: functional
[4] = test system: ECa-109 cell line; test: Induction of apoptosis in human ECA109 cells assessed as late apoptotic/necrotic cells at 1 uM preincubated for 24 hrs followed by laser irradiation at 16 J/cm'2 and measured after 24 hrs by annexin V/propidium iodide staining-based flow cytometric method (reference value: 0.08%); type: functional
[5] = […] assessed as singlet oxygen release by measuring DPBF oxidation rate in presence of 650 nm light by UV-vis spectrophotometer; type: functional
[6] = Octanol/water partition coefficient, log P of the compound by shake-flask method; type: physicochemical
[7] = test system: ECa-109 cell line; test: Induction of apoptosis in human ECA109 cells assessed as late apoptotic/necrotic cells at 5 uM preincubated for 24 hrs followed by laser irradiation at 16 J/cm'2 and measured after 24 hrs by annexin V/propidium iodide staining-based flow cytometric method (reference value: 0.08%); type: functional
[8] = Dark toxicity in human ECA109 cells assessed as decrease in cell viability up to 1 uM after 24 hrs by MTT assay; type: cell-based; details: eca-109, 24 h
[9] = test system: ECa-109 cell line; test: Induction of apoptosis in human ECA109 cells assessed as early apoptotic cells at 5 uM preincubated for 24 hrs followed by laser irradiation at 16 J/cm'2 and measured after 24 hrs by annexin V/propidium iodide staining-based flow cytometric method (reference value: 2.45%); type: functional
[10] = Dark toxicity in human ECA109 cells assessed as cell viability at 5 uM after 24 hrs by MTT assay (reference value: 80%); type: cell-based, ECa-109; details: read-out: Activity
[11] = test system: ECa-109 cell line; test: Photocytotoxicity against human ECA109 cells assessed as decrease in cell viability at 1 uM preincubated for 24 hrs followed by laser irradiation at 1 to 32 J/Cm'2 by MTT assay; type: functional, cell-based
[12] = test system: ECa-109 cell line; test: Induction of apoptosis in human ECA109 cells assessed as increase in late apoptotic/necrotic cells preincubated for 24 hrs followed by laser irradiation at 16 J/cm'2 and measured after 24 hrs by annexin V/propidium iodide staining-based flow cytometric method; type: functional, cell-based
[13] = test system: ECa-109 cell line; test: Antitumor activity against human ECA109 cells xenografted in BALB/c nude mouse assessed as decrease in tumor volume at 3 mg/kg, iv measured at 3 to 21 days post treatment in presence of 100 J/cm2 laser irradiation; type: functional, organism-based
[14] = Drug uptake in nuclear membrane of human ECA109 cells at 5 uM incubated for 4 hrs in dark condition by Hoechst 33342 staining-based confocal fluorescence microscopy; type: ADME, cell membranes; details: eca-109, 4 h

| Structure (SMILES) | Drug uptake [2] | logP [6] | Drug uptake [14] | Activity [1] | Activity [3] [%] | Activity [4] [%] | K [5] [min⁻¹] | Activity [7] [%] | Activity [8] | Activity [9] [%] | viability at 24 h, 5 µM [10] [%] | Activity [11] | Activity [12] | Activity [13] |
| --- | --- | --- | --- | --- | --- | --- | --- | --- | --- | --- | --- | --- | --- | --- |
| C=Cc1c(C)c2cc3nc(c4c5[nH]c(cc6nc(cc1[nH]2)C(C)=C6CC)c(C)c5C(=O)C4)[C@@H](CCC(=O)O)[C@@H]3C |  |  |  |  |  |  | 0.0578 |  |  |  |  |  |  |  |
| C=Cc1c(C)c2cc3nc(c4c5[nH]c(cc6nc(cc1[nH]2)C(C)=C6CC)c(C)c5C(=O)C4)[C@@H](CCC(=O)N(CCC(=O)OC)CCC(=O)OC)[C@@H]3C |  | 3.3 |  |  |  |  |  |  |  |  |  |  |  |  |

Continued, in another order:

| Drug uptake [2] | logP [6] | Drug uptake [14] | Structure (SMILES) | Activity [1] | Activity [3] [%] | Activity [4] [%] | K [5] [min⁻¹] | Activity [7] [%] | Activity [8] | Activity [9] [%] | viability at 24 h, 5 µM [10] [%] | Activity [11] | Activity [12] | Activity [13] |
| --- | --- | --- | --- | --- | --- | --- | --- | --- | --- | --- | --- | --- | --- | --- |
| Active | 2.3 | Active | CCC1=C(C)c2cc3[nH]c(cc4nc(c5c6[nH]c(cc1n2)c(C)c6C(=O)C5)[C@@H](CCC(=O)N(CCC(=O)O)CCC(=O)O)[C@@H]4C)c(C)c3C(C)OC (stereo partly specified) | Non-Toxic | 7.38 | 60.46 | 0.0596 | 81.22 | Non-Toxic | 5.41 | 50 | Active | Dose-dependent effect | Active |
|  | 3.1 |  | CCCCCOC(C)c1c(C)c2cc3nc(c4c5[nH]c(cc6nc(cc1[nH]2)C(C)=C6CC)c(C)c5C(=O)C4)[C@@H](CCC(=O)N(CCC(=O)O)CCC(=O)O)[C@@H]3C (stereo partly specified) |  |  |  | 0.0241 |  | Non-Toxic |  | 50 | Active |  |  |
|  | 2.7 |  | CCCOC(C)c1c(C)c2cc3nc(c4c5[nH]c(cc6nc(cc1[nH]2)C(C)=C6CC)c(C)c5C(=O)C4)[C@@H](CCC(=O)N(CCC(=O)O)CCC(=O)O)[C@@H]3C (stereo partly specified) |  |  |  | 0.0266 |  | Non-Toxic |  | 50 | Active |  |  |
